Measurements published in PubChem BioAssay (NCI).
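How tested: cells in 96-well plates exposed to compound for 48 hours at five concentrations. TGI marks complete inhibition of growth.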 Calls of active or inactive are those of the source. Cut-off read from the data, not from the text of the source: active = GI50 below about 0.43 µM; inactive = the rest.

Columns and labels:
Experiment in all cases: NCI tumour cell line growth inhibition, 48 h
CCRF-CEM leukemia = test system: CCRF-CEM leukemia
KM20L2 colon = test system: KM20L2 colon
A549 NSCLC = test system: A549 NSCLC
SK-OV-3 ovarian = test system: SK-OV-3 ovarian
NCI-H460 lung = test system: NCI-H460 lung
HCC-2998 colon = test system: HCC-2998 colon
MOLT-4 leukemia = test system: MOLT-4 leukemia
EKVX NSCLC = test system: EKVX NSCLC
RPMI-8226 leukemia = test system: RPMI-8226 leukemia
HT29 colon = test system: HT29 colon
U251 CNS = test system: U251 CNS
ACHN renal = test system: ACHN renal
786-0 renal = test system: 786-0 renal
UO-31 renal = test system: UO-31 renal
MALME-3M melanoma = test system: MALME-3M melanoma
SN12C renal = test system: SN12C renal
SNB-19 CNS = test system: SNB-19 CNS
RXF 393 renal = test system: RXF 393 renal
OVCAR-5 ovarian = test system: OVCAR-5 ovarian
XF 498 CNS = test system: XF 498 CNS
NCI-H23 lung = test system: NCI-H23 lung
HL-60(TB) leukemia = test system: HL-60(TB) leukemia
SW-620 colon = test system: SW-620 colon
OVCAR-8 ovarian = test system: OVCAR-8 ovarian
NCI-H522 lung = test system: NCI-H522 lung
CAKI-1 renal = test system: CAKI-1 renal
SK-MEL-2 melanoma = test system: SK-MEL-2 melanoma
SR leukemia = test system: SR leukemia
HOP-62 NSCLC = test system: HOP-62 NSCLC
OVCAR-4 ovarian = test system: OVCAR-4 ovarian
DLD-1 colon = test system: DLD-1 colon
SF-268 CNS = test system: SF-268 CNS
M14 melanoma = test system: M14 melanoma
UACC-257 melanoma = test system: UACC-257 melanoma
DMS 273 small cell lung = test system: DMS 273 small cell lung
COLO 205 colon = test system: COLO 205 colon
LXFL 529 NSCLC = test system: LXFL 529 NSCLC
IGROV1 ovarian = test system: IGROV1 ovarian
SF-295 CNS = test system: SF-295 CNS
UACC-62 melanoma = test system: UACC-62 melanoma
K-562 leukemia = test system: K-562 leukemia
KM12 colon = test system: KM12 colon
DMS 114 small cell lung = test system: DMS 114 small cell lung
SNB-78 CNS = test system: SNB-78 CNS
NCI/ADR-RES ovarian = test system: NCI/ADR-RES ovarian
OVCAR-3 ovarian = test system: OVCAR-3 ovarian
HOP-92 NSCLC = test system: HOP-92 NSCLC
SF-539 CNS = test system: SF-539 CNS
NCI-H226 lung = test system: NCI-H226 lung
LOX IMVI melanoma = test system: LOX IMVI melanoma
SNB-75 CNS = test system: SNB-75 CNS
RXF-631 renal = test system: RXF-631 renal
HCT-15 colon = test system: HCT-15 colon
A498 renal = test system: A498 renal
SK-MEL-28 melanoma = test system: SK-MEL-28 melanoma
TK-10 renal = test system: TK-10 renal
SK-MEL-5 melanoma = test system: SK-MEL-5 melanoma
M19-MEL melanoma = test system: M19-MEL melanoma

CC(C)=C1C(=O)C[C@@]2(C)C[C@H]3OC3(C)CC/C=C(/C)CCC12 (some centres not stated)
outcome (CCRF-CEM leukemia): inactive | outcome (KM20L2 colon): inactive | outcome (A549 NSCLC): inactive | outcome (SK-OV-3 ovarian): inactive | outcome (NCI-H460 lung): inactive | outcome (HCC-2998 colon): inactive | outcome (MOLT-4 leukemia): inactive | outcome (EKVX NSCLC): inactive | outcome (RPMI-8226 leukemia): inactive | outcome (HT29 colon): inactive | outcome (U251 CNS): inactive | outcome (ACHN renal): inactive | outcome (786-0 renal): inactive | outcome (UO-31 renal): inactive | outcome (MALME-3M melanoma): inactive | outcome (SN12C renal): inactive | outcome (SNB-19 CNS): inactive | outcome (RXF 393 renal): inactive | outcome (OVCAR-5 ovarian): inactive | outcome (XF 498 CNS): inactive | outcome (NCI-H23 lung): inactive | TGI (HL-60(TB) leukemia): 49.2 µM | outcome (HL-60(TB) leukemia): inactive | outcome (SW-620 colon): inactive | outcome (OVCAR-8 ovarian): inactive | outcome (NCI-H522 lung): inactive | outcome (CAKI-1 renal): inactive | outcome (SK-MEL-2 melanoma): inactive | outcome (SR leukemia): inactive | outcome (HOP-62 NSCLC): inactive | outcome (OVCAR-4 ovarian): inactive | outcome (DLD-1 colon): inactive | outcome (SF-268 CNS): inactive | outcome (M14 melanoma): inactive | outcome (UACC-257 melanoma): inactive | outcome (DMS 273 small cell lung): inactive | outcome (COLO 205 colon): inactive | outcome (LXFL 529 NSCLC): inactive | outcome (IGROV1 ovarian): inactive | outcome (SF-295 CNS): inactive | outcome (UACC-62 melanoma): inactive | outcome (K-562 leukemia): inactive | outcome (KM12 colon): inactive | outcome (DMS 114 small cell lung): inactive | outcome (SNB-78 CNS): inactive | TGI (NCI/ADR-RES ovarian): 95 µM | outcome (OVCAR-3 ovarian): inactive | outcome (HOP-92 NSCLC): inactive | outcome (SF-539 CNS): inactive | outcome (NCI-H226 lung): inactive | outcome (LOX IMVI melanoma): inactive | outcome (SNB-75 CNS): inactive | outcome (RXF-631 renal): inactive | outcome (HCT-15 colon): inactive

CCc1cccc(C)c1NC(=O)C1=C(C)NC(C)=C(C(=O)Nc2c(C)cccc2CC)C1c1ccc([N+](=O)[O-])cc1
TGI (CCRF-CEM leukemia): > 100 µM | TGI (KM20L2 colon): > 100 µM | TGI (A549 NSCLC): > 100 µM | TGI (SK-OV-3 ovarian): > 100 µM | TGI (A498 renal): > 100 µM | TGI (NCI-H460 lung): > 100 µM | TGI (HCC-2998 colon): > 100 µM | TGI (SK-MEL-28 melanoma): > 100 µM | TGI (TK-10 renal): > 100 µM | TGI (MOLT-4 leukemia): 46.6 µM | TGI (EKVX NSCLC): > 100 µM | TGI (RPMI-8226 leukemia): 57.3 µM | TGI (HT29 colon): > 100 µM | TGI (U251 CNS): > 100 µM | TGI (ACHN renal): > 100 µM | TGI (786-0 renal): > 100 µM | TGI (UO-31 renal): > 100 µM | TGI (MALME-3M melanoma): > 100 µM | TGI (SN12C renal): > 100 µM | TGI (SNB-19 CNS): > 100 µM | TGI (RXF 393 renal): > 100 µM | TGI (OVCAR-5 ovarian): > 100 µM | TGI (XF 498 CNS): 66.9 µM | TGI (NCI-H23 lung): > 100 µM | TGI (HL-60(TB) leukemia): 49.5 µM | TGI (SW-620 colon): > 100 µM | TGI (OVCAR-8 ovarian): > 100 µM | TGI (NCI-H522 lung): 68.3 µM | TGI (CAKI-1 renal): 89.6 µM | TGI (SK-MEL-2 melanoma): > 100 µM | TGI (SK-MEL-5 melanoma): > 100 µM | TGI (HOP-62 NSCLC): > 100 µM | TGI (OVCAR-4 ovarian): > 100 µM | TGI (DLD-1 colon): > 100 µM | TGI (SF-268 CNS): > 100 µM | TGI (M14 melanoma): > 100 µM | TGI (UACC-257 melanoma): > 100 µM | TGI (DMS 273 small cell lung): > 100 µM | TGI (COLO 205 colon): > 100 µM | TGI (LXFL 529 NSCLC): > 100 µM | TGI (IGROV1 ovarian): > 100 µM | TGI (SF-295 CNS): > 100 µM | TGI (K-562 leukemia): > 100 µM | TGI (KM12 colon): > 100 µM | TGI (SNB-78 CNS): > 100 µM | TGI (OVCAR-3 ovarian): > 100 µM | TGI (HOP-92 NSCLC): 30.1 µM | TGI (M19-MEL melanoma): > 100 µM | TGI (SF-539 CNS): > 100 µM | TGI (NCI-H226 lung): > 100 µM | TGI (LOX IMVI melanoma): > 100 µM | TGI (SNB-75 CNS): > 100 µM | TGI (RXF-631 renal): > 100 µM
